Earlier results in patent US12371983B2, “Large-scale carbon-mineralization through oxalatization” (THE CURATORS OF THE UNIVERSITY OF MISSOURI, priority 2021, dated 2025).
Values after ≈ are worked out from the molar mass of the structure shown.

Conditions: at 20° C. and one atmospheric pressure

Compound: O=C=O [CO2]
- solubility in water: ~1800 µg/mL (≈ 40.9 mM)
